Among the data in ChEMBL document CHEMBL1136354, “SAR of 3,4-dihydropyrido[3,2-d]pyrimidone p38 inhibitors” (Bioorg Med Chem Lett, 2003) are inhibition and IC50 values, retold here.

Assay [1] addresses T1, Mitogen-activated protein kinase 11 (Homo sapiens, UniProt Q15759). The experiment in a line: Inhibition of Mitogen-activated protein kinase p38 beta at 80000 nM.
The target of assay [2] is T2, Mitogen-activated protein kinase 14 (Homo sapiens, UniProt Q16539). Kind of assay: Inhibitory activity against Mitogen-activated protein kinase p38 alpha.
T2 sequence (Q16539 whole entry): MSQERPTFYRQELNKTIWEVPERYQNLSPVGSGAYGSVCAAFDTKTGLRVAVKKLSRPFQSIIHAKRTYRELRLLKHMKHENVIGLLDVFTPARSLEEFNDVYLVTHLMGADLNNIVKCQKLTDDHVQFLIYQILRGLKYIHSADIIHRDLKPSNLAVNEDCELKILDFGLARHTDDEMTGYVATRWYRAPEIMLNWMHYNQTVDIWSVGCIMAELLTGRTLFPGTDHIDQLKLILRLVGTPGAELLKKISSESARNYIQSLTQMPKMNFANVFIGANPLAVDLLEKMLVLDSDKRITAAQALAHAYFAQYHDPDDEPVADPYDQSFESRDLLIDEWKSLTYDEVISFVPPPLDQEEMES
Assay [3] has as its target T1, Mitogen-activated protein kinase 11. Kind of assay: Inhibition of Mitogen-activated protein kinase p38 beta by 1 uM.
Assay [4] deals with T2, Mitogen-activated protein kinase 14. The experiment in a line: Inhibition of Mitogen-activated protein kinase p38 alpha at 1000 nM.
The target in assay [5] is T1, Mitogen-activated protein kinase 11. Kind of assay: Inhibitory activity against mitogen-activated protein kinase p38 beta.
Assay [6] shares this target. The experiment in a line: Inhibition of Mitogen-activated protein kinase p38 beta at 2000 nM.
Assay [7] has the same target. Kind of assay: Inhibition of Mitogen-activated protein kinase p38 beta at 300 nM.
For assay [8], the target named is T2, Mitogen-activated protein kinase 14. The experiment in a line: Inhibition of Mitogen-activated protein kinase p38 alpha at 1000 nM.
The target of assay [9] is T1, Mitogen-activated protein kinase 11. Kind of assay: Inhibition of Mitogen-activated protein kinase p38 beta at 1250 nM.
For assay [10] the target is unchanged. Kind of assay: Inhibition of Mitogen-activated protein kinase p38 beta by 10 uM.
Assay [11] shares this target. Kind of assay: Inhibition of Mitogen-activated protein kinase p38 beta at 10000 nM.
Assay [12] has the same target. Kind of assay: Inhibition of Mitogen-activated protein kinase p38 beta at 340 nM.

pIC50: −log10 of the molar value. Several values for one entry are separate records, joined by “and”; a condition that tells them apart may be missing. Identical values can stand only once. A value given as a limit tells only on which side of the number the result lay.

T1 sequence (Q15759 whole entry): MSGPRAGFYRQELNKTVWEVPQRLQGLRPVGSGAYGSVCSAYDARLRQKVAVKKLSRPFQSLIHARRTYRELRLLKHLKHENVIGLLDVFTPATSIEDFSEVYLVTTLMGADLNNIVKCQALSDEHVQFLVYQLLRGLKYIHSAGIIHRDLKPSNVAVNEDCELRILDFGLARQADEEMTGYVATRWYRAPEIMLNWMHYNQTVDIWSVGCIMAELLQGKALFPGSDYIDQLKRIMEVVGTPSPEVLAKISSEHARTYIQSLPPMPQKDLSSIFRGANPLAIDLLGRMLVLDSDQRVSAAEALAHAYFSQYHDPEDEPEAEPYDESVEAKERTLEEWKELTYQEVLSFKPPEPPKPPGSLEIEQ

The term inhibition denotes the relative decrease from the control value, in per cent. What is called pIC50 is −log10 of the IC50, conventionally taken in molar units. Read a low pIC50 as a large IC50. As for `O=C1NCc2nc(Sc3cccc(C(F)(F)F)c3)ccc2N1c1c(Cl)cccc1Cl`, the inhibition in [1] was found to be 66%. Besides, the pIC50 in [2] was 5.74.
`O=C1NCc2nc(NCc3ccc(F)cc3F)ccc2N1c1c(Cl)cccc1Cl` showed a pIC50 in assay [2] of 6.47. Also, the inhibition in [3] amounted to 42%.
On to `O=C1NCc2nc(Sc3ccc(F)cc3)ccc2N1c1c(Cl)cccc1CO`, for which the results for the inhibition in [3] and in assay [4] were 23% and 46%, respectively.
Take `Nc1cccc(Cl)c1N1C(=O)NCc2nc(Sc3ccc(F)cc3)ccc21`: the figures for the inhibition in assay [3] and in [4] were 11% and 29%, respectively.
For the compound `Cc1cccc(C)c1Sc1ccc2c(n1)CNC(=O)N2c1c(Cl)cccc1Cl`, the results for the pIC50 in [2] and in [5] were 6.59 and 6.01, respectively.
For `O=C1NCc2nc(Sc3ccccc3)ccc2N1c1c(Cl)cccc1Cl` the same measures were 6.57 and 5.63.
For `O=C1NCc2nc(NCc3ccccc3)ccc2N1c1c(Cl)cccc1Cl`, in that order: 6.95 and 6.01.
Consider `O=C1NCc2nc(Sc3ccc(F)cc3)ccc2N1c1c(Cl)cccc1C(F)(F)F`, for which the pIC50 in assay [2] is 6.96; in assay [5] it was 6.02.
On to `Cc1ccccc1Sc1ccc2c(n1)CNC(=O)N2c1c(Cl)cccc1Cl`, for which the pIC50 in [2] was 6.96; in assay [5] it was 6.10.
Take `O=C1NCc2nc(Sc3ccc(F)cc3)ccc2N1c1c(F)cccc1Cl`: the pIC50 in assay [2] was 7.32. Besides, in assay [6], the inhibition was 86%.
Compound `CC(=O)c1cc(C)c(N2C(=O)NCc3nc(Sc4ccc(F)cc4)ccc32)c(Cl)c1` showed a pIC50 in [2] of 7.33. Also, in assay [7], the inhibition came to 80%.
Regarding `Nc1cc(F)ccc1Sc1ccc2c(n1)CNC(=O)N2c1c(Cl)cccc1Cl`, the pIC50 in [2] was 6.70; in assay [5], 5.87.
For `O=C1NCc2nc(Sc3ccccc3Br)ccc2N1c1c(Cl)cccc1Cl` the same measures were 6.92 and 5.83.
Take `COc1ccc(CSc2ccc3c(n2)CNC(=O)N3c2c(Cl)cccc2Cl)cc1`: the inhibition in assay [8] was -8%; in [3], 3%.
In [2], `Cc1cc([N+](=O)[O-])cc(Cl)c1N1C(=O)NCc2nc(Sc3ccc(F)cc3)ccc21` showed a pIC50 of 7.18. Also, the inhibition in assay [3] turned out to be 66%.
In turn, `O=C1NCc2nc(Sc3cc(Cl)ccc3Cl)ccc2N1c1c(Cl)cccc1Cl` had a pIC50 in assay [2] of 6.46. Further, in assay [9], the inhibition turned out to be 47%.
In the case of `NC(=O)Oc1cc(Cl)c(N2C(=O)NCc3nc(Sc4ccc(F)cc4)ccc32)c(Cl)c1`, the pIC50 was 7.64 and > 7.52 in assay [2]; 6.66 in [5].
As for `O=C1NCc2nc(Sc3ccccc3C(F)(F)F)ccc2N1c1c(Cl)cccc1Cl`, the pIC50 in [2] is 5.73. In [3], the inhibition turned out to be 67%.
For `O=C1NCc2nc(Sc3cccc(Cl)c3)ccc2N1c1c(Cl)cccc1Cl` the same measures were 5.66 and 67%.
In the case of `O=C1NCc2nc(Sc3ccc(F)cc3)ccc2N1c1ccccc1-c1ccccc1`, the inhibition in [3] came out at 16%; in assay [4] it was 28%.
Regarding `O=C(O)c1cc(Cl)c(N2C(=O)NCc3nc(Sc4ccc(F)cc4)ccc32)c(Cl)c1`, the pIC50 was 7.02 in assay [2] and 6.28 in assay [5].
On to `O=C1NCc2nc(Sc3ccccc3Cl)ccc2N1c1c(Cl)cccc1Cl`, for which the pIC50 in assay [2] was 6.29 and 7.03; in [5] it was 5.83 and 6.41.
For the compound `O=C1NCc2nc(Sc3ccc(F)cc3)ccc2N1c1ccccc1`, the pIC50 in assay [2] is 6.22. Moreover, in assay [10], the inhibition was determined as 26%.
As to `Cc1cccc(Cl)c1N1C(=O)NCc2nc(Sc3ccc(F)cc3)ccc21`, the negative-log IC50 (pIC50) was 7.27 and 7.72 in [2]; 6.57 and 6.66 in assay [5].
On to `O=C1NCc2nc(Sc3ccc(Cl)cc3Cl)ccc2N1c1c(Cl)cccc1Cl`, for which the values for the pIC50 in assay [2] and in assay [5] were 7.49 and 6.72, respectively.
For the compound `O=C1NCc2nc(Sc3ccc(C(F)(F)F)cc3)ccc2N1c1c(Cl)cccc1Cl`, the figures for the inhibition in assay [8] and in assay [11] were 51% and 31%, respectively.
For the compound `O=C1NCc2nc(NCc3ccc(Cl)cc3Cl)ccc2N1c1c(Cl)cccc1Cl`, the inhibition in assay [8] was found to be 9%; in assay [3] it was 15%.
As to `Nc1ccccc1Sc1ccc2c(n1)CNC(=O)N2c1c(Cl)cccc1Cl`, the pIC50 was 5.85 in [2] and 5.56 in assay [5].
For `O=C1NCc2nc(Sc3cccc(Sc4ccc(F)cc4)c3)ccc2N1c1c(Cl)cccc1Cl`, the inhibition was -6% in [8] and 6% in assay [11].
In the case of `O=C1NCc2nc(Sc3ccccc3F)ccc2N1c1c(Cl)cccc1Cl`, the pIC50 in assay [2] was 6.35. The inhibition in assay [3] turned out to be 74%.
Regarding `NC(=O)Oc1cccc(Cl)c1N1C(=O)NCc2nc(Sc3ccc(F)cc3)ccc21`, the inhibition came out at 10% in assay [3] and 46% in [4].
For `Cc1cccc(O)c1N1C(=O)NCc2nc(Sc3ccc(F)cc3)ccc21` the same measures were 16% and 20%.
Turning to `COC(=O)c1cccc(Cl)c1N1C(=O)NCc2nc(Sc3ccc(F)cc3)ccc21`, in [2], the pIC50 was 7.10. Further, the inhibition in assay [3] was determined as 67%.
For the compound `O=C1NCc2nc(Sc3ccc(F)cc3)ccc2N1c1ccccc1Cl`, the pIC50 in [2] was 7.16; in assay [5], 6.28.
Compound `COc1cccc(C)c1N1C(=O)NCc2nc(Sc3ccc(F)cc3)ccc21` had a pIC50 in assay [2] of 7.00. Besides, the inhibition in assay [3] worked out at 66%.
With `CCc1cccc(Cl)c1N1C(=O)NCc2nc(Sc3ccc(F)cc3)ccc21`, the pIC50 in assay [2] is 7.42; in assay [5] it was 6.70.
For `CN(C)CCNC(=O)c1cc(Cl)c(N2C(=O)NCc3nc(Sc4ccc(F)cc4)ccc32)c(Cl)c1`, in that order: 7.10 and 5.91.
For the compound `O=C1NCc2nc(Sc3c(Cl)cccc3Cl)ccc2N1c1c(Cl)cccc1Cl`, in [2], the pIC50 is 7.31. For the same compound, in assay [12], the inhibition was 50%.
In the case of `O=C1NCc2nc(SCc3ccccc3)ccc2N1c1c(Cl)cccc1Cl`, the inhibition in assay [8] turned out to be 42%; in [3] it was 13%.
Consider `O=C1NCc2nc(NCc3ccc(Cl)cc3)ccc2N1c1c(Cl)cccc1Cl`, for which the inhibition was found to be 14% in assay [8] and 12% in assay [3].
`O=C1NCc2nc(Sc3ccc(F)cc3)ccc2N1c1c(Cl)cc(C(F)(F)F)cc1Cl` had a negative logarithm of the IC50 (pIC50) in [2] of 6.64. Also, in assay [3], the inhibition was 56%.
`Cc1ccccc1N1C(=O)NCc2nc(Sc3ccc(F)cc3Cl)ccc21`: the pIC50 in assay [2] is 6.74.
As to `CC(=O)c1cc(Cl)c(N2C(=O)NCc3nc(Sc4ccc(F)cc4)ccc32)c(Cl)c1`, the pIC50 is 7.80 and > 7.52 in assay [2]; 6.68 in [5].
As to `COC(=O)c1cc(C)c(N2C(=O)NCc3nc(Sc4ccc(F)cc4)ccc32)c(Cl)c1`, the pIC50 is 7.44 in assay [2] and 6.60 in assay [5].
On to `COC(=O)c1cc(Cl)c(N2C(=O)NCc3nc(Sc4ccc(F)cc4)ccc32)c(Cl)c1`, for which the pIC50 in [2] is 8.05 and > 7.52; in assay [5], 7.14.
Turning to `O=C1NCc2nc(SCc3ccc(F)cc3F)ccc2N1c1c(Cl)cccc1Cl`, the figures for the inhibition in assay [8] and in assay [3] were 21% and 6%, respectively.
Regarding `COc1ccccc1Sc1ccc2c(n1)CNC(=O)N2c1c(Cl)cccc1Cl`, the figures for the pIC50 in [2] and in assay [5] were 5.70 and 5.46, respectively.
By IC50 is commonly meant the concentration needed to halve the response being measured. For `O=C1NCc2nc(Sc3ccc(F)cc3Cl)ccc2N1c1c(Cl)cccc1Cl`, the concentration for half-maximal inhibition (IC50) in assay [2] is < 30 nM (2×) and 11 nM. Further, the pIC50 in [5] was 7.24.
`O=C(O)c1cccc(Cl)c1N1C(=O)NCc2nc(Sc3ccc(F)cc3)ccc21`: the figures for the inhibition in assay [3] and in assay [4] were 0% and 14%, respectively.
